These results are taken from PMC9264368, “Structural Analysis and Development of Notum Fragment Screening Hits” (ACS Chemical Neuroscience, 2022).

Values after ≈ are worked out from the molar mass of the structure shown. Where two headings read alike, the source gives them in different places. Bounds are passed on as bounds.

Details of data set [1]: method as in PMID 33124429. The note with it: mouse; cited from earlier work.
In data set [2] the test system is Wnt/β-catenin signaling in the presence of Notum. The note with it: read-out: EC50, restoration of Wnt/β-catenin signaling, TCF/LEF reporter.
Data set [3] has the same test system. Also noted: method as in PMID 35536179. The settings on record: read-out: EC50, cell-based reporter (TCF/LEF) assay; cited from earlier work.
The test system of data set [4] is MDCK-MDR1. Also noted: method as in PMID 35536179. The note with it: cited from earlier work.
In data set [5] the target is T1, Notum (Homo sapiens, UniProt Q6P988, C330S).
T1 sequence (Q6P988 81-451 C330S): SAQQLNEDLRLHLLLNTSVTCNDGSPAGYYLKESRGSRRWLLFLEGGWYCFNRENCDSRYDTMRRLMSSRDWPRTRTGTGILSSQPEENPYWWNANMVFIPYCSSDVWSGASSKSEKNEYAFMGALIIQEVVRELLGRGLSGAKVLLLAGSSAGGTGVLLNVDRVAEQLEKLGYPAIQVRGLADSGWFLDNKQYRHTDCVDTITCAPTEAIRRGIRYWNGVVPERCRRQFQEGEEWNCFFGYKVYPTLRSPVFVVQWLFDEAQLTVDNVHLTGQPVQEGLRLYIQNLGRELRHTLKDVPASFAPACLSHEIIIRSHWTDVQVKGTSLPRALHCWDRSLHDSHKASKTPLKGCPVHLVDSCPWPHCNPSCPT
Description: biochemical.

On the set-up of data set [6]: method as in PMID 35536179. The settings on record: cited from earlier work.
Details of data set [7]: method as in PMID 35536179. The note with it: human liver microsomes; cited from earlier work.
Details of data set [8]: method as in PMID 35536179. The settings on record: mouse liver microsomes; cited from earlier work.
Data set [9] deals with T1, Notum. The note with it: for LE (ligand efficiency): LE = 1.4(−pIC50)/HAC; for LLE (lipophilic ligand efficiency): LLE = pIC50 – clogP; for LE / LLE: supplementary CSV.
The mark [10] stands for this setting: Notum IC50, OPTS substrate, 10-point curves 30 nM to 1 mM, mean ± s.d. of N = 2–4 unless stated, Table 1 and figures.
[11] abbreviates: pIC50, Table 1, Notum OPTS assay.

On to `Oc1nnc(-c2ccc(Cl)c(C(F)(F)F)c2)o1` [7a], for which, in data set [1], the brain penetration entry is listed as “only partial” and the plasma exposure result is on record as “good”.

For `OCc1cn(-c2ccc(Cl)c(C(F)(F)F)c2)nn1` [7b, (1-(4-Chloro-3-(trifluoromethyl)phenyl)-1H-1,2,3-triazol-4-yl)methanol], the EC50 in data set [2] came to 1.6 ± 1.2 µM.

Regarding `FC(F)(F)c1c(Cl)ccc(-n2ccnn2)c1Cl` [7d], the EC50 in data set [3] was 0.11 ± 0.1 µM.

Take `OCc1cn(-c2ccc(Cl)c(Cl)c2)nn1` [compound 7]: the “Papp AB” value in data set [4] (MDCK-MDR1, AB) is listed as 57 × 10^–6 cm/s. Further, the “Papp BA” value in [4] (MDCK-MDR1, BA) was 59 × 10^–6 cm/s. Moreover, the IC50 in data set [5] (setting [10]) is under 10 µM. Also, the aqueous solubility in data set [6] is given as 100 mg/mL (≈ 410 mM). Further, in [7], the HLM Cli is 12 µL/min/mg protein. Besides, in [8], the MLM Cli is 88 µL/min/mg protein.

For `c1ccc(CNCc2ccc3c(c2)OCO3)nc1` [compound 28, 1-(Benzo[d][1,3]dioxol-5-yl)-N-(pyridine-2-ylmethyl)methanamine], the IC50 in [5] (setting [10]) worked out at 54 ± 6.2 µM. Moreover, in data set [9], the “LE (ligand efficiency)” value came to 0.33, the “LLE (lipophilic ligand efficiency)” value is reported as 3.2, the LE is 0.33 and the LLE turned out to be 3.2.

In turn, `CCc1ccc(OCC(=O)N2CCCCC2)cc1` [compound 31] came in with an IC50 in data set [5] (setting [10]) of 120 ± 30 µM. Further, in data set [9], the “LE (ligand efficiency)” value is 0.30, the “LLE (lipophilic ligand efficiency)” value was determined as 0.7, the LE was 0.3 and the LLE came out at 0.7.

On to `c1cc2c(cc1CNC[C@H]1CCCO1)OCO2` [compound 32], for which, in data set [5] (IC50 (µM), supplementary CSV, Notum IC50 values for 1–58), the IC50 turned out to be 1000 µM. This compound also displayed an IC50 in data set [5] (setting [10]) of about 1000 µM. Moreover, in data set [9], the “LE (ligand efficiency)” value is given as 0.25, the “LLE (lipophilic ligand efficiency)” value turned out to be 0.9, the LE was 0.25 and the LLE is listed as 0.9.

The compound `Nc1ccccc1Nc1ccccn1` [compound 33] gave a concentration for half-maximal inhibition (IC50) in [5] (setting [10]) of 500 ± 64 µM. Further, in data set [9], the “LE (ligand efficiency)” value turned out to be 0.33, the “LLE (lipophilic ligand efficiency)” value is 1.6, the LE was determined as 0.33 and the LLE was 1.6.

In data set [5] (setting [10]), `NNC(=O)c1ccccc1OCc1ccccc1` [compound 34] returned an IC50 of 330 ± 11 µM. In [9], the “LE (ligand efficiency)” value is recorded as 0.27, the “LLE (lipophilic ligand efficiency)” value came out at 1.4, the LE turned out to be 0.27 and the LLE amounted to 1.4.

`COCC(=O)Nc1nc(-c2ccccc2)cs1` [compound 35] gave an IC50 in [5] (setting [10]) of 120 ± 24 µM. Besides, in [9], the “LE (ligand efficiency)” value was 0.32, the “LLE (lipophilic ligand efficiency)” value turned out to be 1.6, the LE was found to be 0.32 and the LLE stood at 1.6.

Consider `Cl.Oc1c(CN2CCOCC2)ccc2ccccc12` [compound 37], for which, in data set [5] (setting [10]), the IC50 was found to be 58 ± 19 µM. Moreover, in data set [9], the “LE (ligand efficiency)” value is 0.33, the “LLE (lipophilic ligand efficiency)” value worked out at 1.9, the LE is listed as 0.33 and the LLE is listed as 1.9.

`CC1CCN(Cc2c[nH]c3ccccc23)CC1` [compound 38]: half-maximal inhibition in [5] (setting [10]) (IC50) was put at 120 ± 49 µM. Further, in [9], the “LE (ligand efficiency)” value is 0.32, the “LLE (lipophilic ligand efficiency)” value is listed as 0.2, the LE came out at 0.32 and the LLE amounted to 0.2.

The compound `COCC(=O)NCc1ccccc1` [compound 41] yielded an IC50 in [5] (setting [10]) of 68 ± 5.4 µM. Further, in [9], the “LE (ligand efficiency)” value was determined as 0.45, the “LLE (lipophilic ligand efficiency)” value is 3.2, the LE turned out to be 0.45 and the LLE worked out at 3.2.

Regarding `COc1ccc(CNC(=O)[C@@H]2CCCO2)cc1` [compound 43], half-maximal inhibition in data set [5] (setting [10]) (IC50) was put at 87 ± 47 µM. In [9], the “LE (ligand efficiency)” value is recorded as 0.34, the “LLE (lipophilic ligand efficiency)” value was 2.7, the LE was determined as 0.34 and the LLE worked out at 2.7.

Consider `COC(=O)COc1ccc(C#N)cc1` [compound 44], for which, in [5] (setting [10]), the half-inhibitory concentration (IC50) was found to be 410 ± 63 µM. Moreover, in data set [9], the “LE (ligand efficiency)” value turned out to be 0.34, the “LLE (lipophilic ligand efficiency)” value was determined as 2.0, the LE is given as 0.34 and the LLE was 2.

`O=C(NCCc1ccc(O)cc1)c1ccccn1` [compound 45] returned an IC50 in data set [5] (setting [10]) of 720 ± 18 µM. In data set [9], the “LE (ligand efficiency)” value came to 0.24, the “LLE (lipophilic ligand efficiency)” value is listed as 1.2, the LE is on record as 0.24 and the LLE is listed as 1.2.

Compound `COc1cc(-c2ccccc2)nc(N)n1` [compound 46] displayed an IC50 in data set [5] (setting [10]) of 380 ± 130 µM. For the same compound, in data set [9], the “LE (ligand efficiency)” value was determined as 0.32, the “LLE (lipophilic ligand efficiency)” value is reported as 0.7, the LE was 0.32 and the LLE is recorded as 0.7.

As to `Cn1nc(O)cc1Nc1ccccc1` [compound 49], the IC50 in data set [5] (setting [10]) turned out to be 550 ± 93 µM. In addition, in data set [5] (setting [11]), the 50% inhibitory concentration (IC50) was 631 µM. Besides, in data set [9], the “LE (ligand efficiency)” value was found to be 0.33, the “LLE (lipophilic ligand efficiency)” value was 1.8, the LE came out at 0.33 and the LLE amounted to 1.8.

Consider `Cc1ccc(C)c(OC(=O)c2ccncc2)c1` [compound 50], for which the IC50 in data set [5] (setting [10]) amounted to 36 ± 2.7 µM. Also, in [9], the “LE (ligand efficiency)” value worked out at 0.37, the “LLE (lipophilic ligand efficiency)” value was found to be 1.1, the LE was found to be 0.37 and the LLE was 1.1.

In turn, `CCc1noc(C)c1C(=O)Nc1cc(C)on1` [compound 53] displayed an IC50 in [5] (setting [10]) of 980 ± 17 µM. Further, in data set [9], the “LE (ligand efficiency)” value is listed as 0.25, the “LLE (lipophilic ligand efficiency)” value turned out to be 2.7, the LE is recorded as 0.25 and the LLE came to 2.7.

The compound `Cc1ccccc1CNc1nnnn1C` [compound 54] displayed a half-inhibitory concentration (IC50) in data set [5] (setting [10]) of 78 ± 8.2 µM. Moreover, in data set [9], the “LE (ligand efficiency)” value amounted to 0.38, the “LLE (lipophilic ligand efficiency)” value turned out to be 2.0, the LE amounted to 0.38 and the LLE worked out at 2.

Turning to `C[C@@H](Oc1ccc(-c2ccccc2)cc1)C(=O)O` [compound 55], in data set [5] (setting [10]), inhibition was half-maximal at 200 ± 76 µM (IC50). In [9], the “LE (ligand efficiency)” value worked out at 0.29, the “LLE (lipophilic ligand efficiency)” value is 0.2, the LE was determined as 0.29 and the LLE is 0.2.

On to `CCn1c(NC(C)=O)nc2ccccc21` [compound 57], for which the 50% inhibitory concentration (IC50) in [5] (setting [10]) is 260 ± 51 µM. The IC50 in [5] (setting [11]) was 316 µM. In [9], the “LE (ligand efficiency)” value is recorded as 0.33, the “LLE (lipophilic ligand efficiency)” value amounted to 1.5, the LE is recorded as 0.33 and the LLE was 1.5.

As to `CC(=O)Nc1ccc2nsnc2c1` [compound 58], in data set [5] (setting [10]), the half-inhibitory concentration (IC50) came out at 390 ± 53 µM. In addition, in data set [9], the “LE (ligand efficiency)” value is on record as 0.38, the “LLE (lipophilic ligand efficiency)” value was found to be 1.4, the LE was determined as 0.38 and the LLE stood at 1.4.
